Here are results for 9 compounds from patent US11566007B2, “Ras inhibitors” (Revolution Medicines, Inc., priority 2019, dated 2023).

Read-outs that look alike come from different tables or passages of the source.

The conditions of data set [1]: ester bond, 18-membered ring, DCM.
For the next data set, the system named is SW1573. Conditions: Canon et al. 2019; cited from earlier work.
Data set [2] relates to NCI-H358 KRASG12C xenograft. The data set can be described thus: In vivo NSCLC K-Ras G12C xenograft model. On the set-up: species or system BALB/c nude mice. On the procedure:
Cobimetinib was administered by daily oral gavage at 2.5 mg/kg. The combination of Compound B and cobimetinib at their respective single-agent dose and regimen was also tested.

Data set [3] deals with NCI-H358 cells. The data set can be described thus: 72-hour proliferation assay using CellTiter-Glo reagent. Type of data set: cell-based, human. Conditions: read-out: EC50 from a 72-hour proliferation assay.
Data set [4] relates to NCI-H358 cells. The data set is described as follows: Long-term cell proliferation assay (Incucyte confluence). As to conditions: trametinib 10 nM. Type of data set: cell-based, human. The procedure:
The plate was placed in the Incucyte S3 live cell analysis system (37° C., 5% CO2) and confluence was measured by recording images at 6-hour intervals for a maximum of 40 days, or until wells reached maximal confluence. Media and drug were replaced at 3-4 day intervals. Data are plotted as % confluence over the time course of the experiment for each single agent and respective combination (FIG. 5).

Setting [5] is: single agent: Compound B 50 mg/kg twice weekly intravenous, cobimetinib […] daily oral.

Compound `CC1(C)COC(=O)[C@@H]2CCCN(N2)C(=O)[C@@H](NC(=O)OC(C)(C)C)Cc2cccc(c2)-c2ccc3[nH]c(I)c(c3c2)C1` yielded a ring closure, yield of all isomers (from CC(C)(CO)Cc1c(I)[nH]c2ccc(-c3cccc(C[C@H](NC(=O)OC(C)(C)C)C(=O)N4CCC[C@@H](C(=O)O)N4)c3)cc12, ester bond, EDCI/HOBt/DIPEA, DCM, 12.77 mM, 0.0 °C, 16.0 h) of 79.8%. The compound also gave a ring closure, isolated yield in data set [1] (from CC(C)(CO)Cc1c(I)[nH]c2ccc(-c3cccc(C[C@H](NC(=O)OC(C)(C)C)C(=O)N4CCC[C@@H](C(=O)O)N4)c3)cc12, EDCI/HOBt/DIPEA, 12.8 mM, 0.0 °C) of 79.8%.

With `CCn1c(-c2cccnc2[C@H](C)OC)c2c3cc(ccc31)-c1nc(nn1C)C[C@H](NC(=O)OC(C)(C)C)C(=O)N1CCC[C@H](N1)C(=O)OCC(C)(C)C2`, the ring closure, yield of all isomers (from CCn1c(-c2cccnc2[C@H](C)OC)c(CC(C)(C)COC(=O)[C@@H]2CCCN(C(=O)[C@H](Cc3nc(Br)n(C)n3)NC(=O)OC(C)(C)C)N2)c2cc(B3OC(C)(C)C(C)(C)O3)ccc21, cc_pd bond, XPhos Pd G3/XPhos/K3PO4, 1,4-dioxane, 71.7 mM, 75.0 °C, 3.0 h) was found to be 56.8%.

For the compound `CCn1c(-c2cccnc2[C@H](C)OC)c2c3nc(ccc31)-c1csc(n1)C[C@H](NC(=O)OC(C)(C)C)C(=O)N1CCC[C@H](N1)C(=O)OCC(C)(C)C2`, the ring closure, yield of all isomers (from CCn1c(-c2cccnc2[C@H](C)OC)c(CC(C)(C)CO)c2nc(-c3csc(C[C@H](NC(=O)OC(C)(C)C)C(=O)N4CCC[C@@H](C(=O)O)N4)n3)ccc21, ester bond, EDCI/HOBt/DIPEA, DCM, 6.4 mM, 25.0 °C, 16.0 h) amounted to 43%. The same compound displayed a ring closure, isolated yield in data set [1] (from CCn1c(-c2cccnc2[C@H](C)OC)c(CC(C)(C)CO)c2nc(-c3csc(C[C@H](NC(=O)OC(C)(C)C)C(=O)N4CCC[C@@H](C(=O)O)N4)n3)ccc21, EDCI.HCl/HOBt/DIPEA, 6.4 mM) of 43%. For `CO[C@@H](C)c1ncccc1-c1c2c3cc(ccc3n1CC(F)(F)F)-c1cccc(n1)C[C@H](NC(=O)OC(C)(C)C)C(=O)N1CCCC(N1)C(=O)OCC(C)(C)C2` (stereo partly shown), the ring closure, yield of all isomers (from CO[C@@H](C)c1ncccc1-c1c(CC(C)(C)CO)c2cc(-c3cccc(C[C@H](NC(=O)OC(C)(C)C)C(=O)N4CCCC(C(=O)O)N4)n3)ccc2n1CC(F)(F)F, ester bond, EDCI/HOBt/DIPEA, DCM, 6.27 mM, 25.0 °C, 3.0 h) worked out at 89%. The compound also came in with a ring closure, isolated yield in data set [1] (from CO[C@@H](C)c1ncccc1-c1c(CC(C)(C)CO)c2cc(-c3cccc(C[C@H](NC(=O)OC(C)(C)C)C(=O)N4CCCC(C(=O)O)N4)n3)ccc2n1CC(F)(F)F, EDCI/HOBt/DIPEA, 6.27 mM) of 89%. Consider `CO[C@@H](C)c1ncccc1-c1c2c3cc(ccc3n1CC(F)(F)F)-c1nc(ns1)C[C@H](NC(=O)OC(C)(C)C)C(=O)N1CCC[C@H](N1)C(=O)OCC(C)(C)C2`, for which, where the note is “from CO[C@@H](C)c1ncccc1-c1c(CC(C)(C)CO)c2cc(-c3nc(C[C@H](NC(=O)OC(C)(C)C)C(=O)N4CCC[C@@H](C(=O)O)N4)ns3)ccc2n1CC(F)(F)F, ester bond, EDCI/HOBt/DIPEA, DCM, 11.1 mM, 25.0 °C, 16.0 h”, the ring closure, yield of all isomers came to 43.5%. In addition, the ring closure, isolated yield in data set [1] (from CO[C@@H](C)c1ncccc1-c1c(CC(C)(C)CO)c2cc(-c3nc(C[C@H](NC(=O)OC(C)(C)C)C(=O)N4CCC[C@@H](C(=O)O)N4)ns3)ccc2n1CC(F)(F)F, EDCI/HOBt/DIPEA, 11.1 mM) was found to be 43.5%.

For `C=CC(=O)N1CCN(c2nc(=O)n(-c3c(C)ccnc3C(C)C)c3nc(-c4c(O)cccc4F)c(F)cc23)[C@@H](C)C1` [AMG510], the “sensitivity of cell line” value with SW1573 is recorded as “insensitive”. In the case of `Cc1nc(N2CCC3(CC2)CO[C@@H](C)[C@H]3N)c(CO)nc1-c1cccc(Cl)c1Cl` [RMC-4550], in data set [2] (single agent: Compound C 60 mg/kg once weekly intravenous, SHP2 inhibitor (RMC-4550) 30 mg/kg daily oral), the “mice with tumor regression at end of study (out of 10), single agent” value amounted to 5. Take `O=C(c1ccc(F)c(F)c1Nc1ccc(I)cc1F)N1CC(O)([C@@H]2CCCCN2)C1` [cobimetinib]: in data set [2] (setting [5]), the “effect on tumor growth, single agent” value is recorded as “tumor growth inhibition” and the “tumor regressions recorded, single agent group” value is recorded as “no tumor regressions”. For the compound `CC(=O)Nc1cccc(-n2c(=O)n(C3CC3)c(=O)c3c(Nc4ccc(I)cc4F)n(C)c(=O)c(C)c32)c1` [trametinib], in the data set with NCI-H358 cells [3], the EC50 was 0.01 µM. Besides, the “time to maximal confluence after the addition of drug” value in the data set on NCI-H358 cells [4] (single agent at EC50 concentration: Compound D 17 nM) was around 10 days. Further, the “cell growth (% confluence) over time, single agent” value in the data set with NCI-H358 cells [4] (submaximal (EC50) concentration: Compound D 17 nM) is reported as “a short period of growth inhibition, followed by proliferation”.
